Results taken from patent US11202836B2, “PSMA targeted conjugate compounds and uses thereof” (CASE WESTERN RESERVE UNIVERSITY, priority 2018, dated 2021).
Where “and” joins values, the source holds several entries; their conditions need not be identical. Equal entries are not always repeated. *1 amine or outer side, *2 acyl side, *3 side chain or, on linkers, in order; H or OH if unused. Where a SMILES comes first, the peptide text is derived from it. Bridges are numbered along the chain shown (N, C = ends). Roman numbers before positions name the chains, in order. [ ]: non-standard residue; d: D form. The star is where a group is joined. ξ: configuration not given here. X2 = CN1/C(=C/C=C/C=C/C2=[N+](CCCCCC(=O)*)c3ccc4ccccc4c3C2(C)C)C(C)(C)c2c1ccc1ccccc21; Hexanoyl(6-succinimido-3yl) = O=C1CC([*:1])C(=O)N1CCCCCC(=O)[*:2]; X3 = CC[C@H](C)[C@@H]([C@H](CC(=O)[*:2])OC)N(C)[*:1]; Dolaproine = CO[C@@H]([C@@H]1CCCN1)[C@@H](C)C(=O)O; Dil = CC[C@H](C)[C@H](NC)[C@@H](CC(=O)O)OC; γGlu = O=C(O)[C@H](CCC(=O)[*:2])N[*:1]; PABC = O=C(OCc1ccc(N[*:1])cc1)[*:2]; ξγGlu = O=C(O)C(CCC(=O)[*:2])N[*:1]; X4 = C[C@@H](N*)[C@@H](O)c1ccccc1; X1 = O=C(C1CCC(CN[*:1])CC1)[*:2]; Cit = NC(=O)NCCC[C@H](N)C(=O)O; NMeV = CN[C@H](C(=O)O)C(C)C; ξE = NC(CCC(=O)O)C(=O)O; CO = O=C([*:1])[*:2]; ξK = NCCCCC(N)C(=O)O; Ahx = NCCCCCC(=O)O; ξC = NC(CS)C(=O)O

Tests used:
orthotopic PC3pip tumors = experiment: Orthotopic PC3pip tumor survival study; type: in vivo, mice
Procedure: Surgical orthotopic tumor implantation was performed as previously reported. Tumor growth/size was monitored using Siemens Acuson […] ultrasound scanner. When the tumors were at the appropriate size (5 mm as measured by ultrasound, approximately 2 weeks) animals were given PSMA-1-VcMMAE, PSMA-1-VcMMAE-Cy5.5, or PBS every four days with a total of 5 doses. Tumors were monitored every other day by ultrasound. Each group had five mice.

[1] = system: heterotopic PC3pip tumors; experiment: Heterotopic PC3pip tumor survival / antitumor study; type: in vivo; details: for tumor growth when given every 7 days: model not stated; for lowest dose effectively inhibiting tumor growth: mouse, in vivo
Excerpt: Male athymic nude mice were implanted subcutaneously with 1×10^6 of PC3pip cells under the right dorsum of the mice. When tumor size reached approximately 100 mm^3 (tumor volume=Length×width^2/2), mice received drugs through tail vein injection. […] Animals were weighed and tumor size measured every other day for 90 days. Cures were defined as no tumor present at end of the 90-day study. When tumors became too large or animals were moribund they were euthanized. Five mice were used in each group.

[2] = Stability of conjugates incubated in PBS without enzyme (HPLC); type: physicochemical; details: no enzyme
Procedure: (§1) PSMA-1-VcMMAE-Cy5.5 or PSMA-1-McMMAE-Cy5.5 was added to 500 μL of activated human liver cathepsin B (Anthens Research and Technology) solution (46) to a final concentration of 2 μM and incubated at 37° C. At different time intervals, 40 μL of the solution was taken out into tubes loaded with 1 μL of 1 mM E64 protease inhibitor. The mixture was vortexed and then stored at −80° C. for future HPLC analysis to assess degradation of PSMA-1-VcMMAE-Cy5.5 or PSMA-1-McMMAE-Cy5.5. Studies were performed in triplicate.
To investigate if PSMA-targeted drug conjugates were cleavable by cathepsin B, the two conjugates were incubated with or without the enzyme and chromatographed by HPLC. When the conjugates were incubated with PBS, both PSMA-1-VcMMAE-Cy5.5 and PSMA-1-McMMAE-Cy5.5 were stable (FIG. 11D).

heterotopic C4-2 tumors = experiment: Heterotopic C4-2 tumor study; design: species or system mice; details: mouse, in vivo
Excerpt: To show versatility of the antitumor activity of PSMA-1-VcMMAE-Cy5.5, we tested it in mice bearing heterotopic C4-2 tumors, which are androgen-independent prostate cancer cells endogenously expressing PSMA.

human liver cathepsin B = molecular target: T1, human liver cathepsin B (Homo sapiens, UniProt P07858); experiment: Enzymatic cleavage by cathepsin B (HPLC); type: in vitro ADME; details: 2 μM conjugate, 37° C.
T1 construct: purchased Anthens Research and Technology; host or cells: human liver (tissue-derived enzyme)
Procedure: as §1

cathepsin B = molecular target: T2, cathepsin B (Homo sapiens, UniProt P07858); experiment: Enzymatic cleavage by cathepsin B (HPLC); type: in vitro ADME; details: human, activated human liver cathepsin B solution; 2 μM conjugate, 37° C.; read-out: half-life in the presence of cathepsin B (converted)
T2 construct: purchased Anthens Research and Technology; host or cells: human liver (tissue-derived enzyme)
Procedure: as §1

PC3pip and PC3flu tumors = experiment: In vivo NIR imaging of mice bearing PC3pip and PC3flu tumors; details: 40 nmol/kg i.v.
Procedure: Under guidelines of the animal care and use committee at Case Western Reserve University (IACUC #150033) 6 to 8-week old male Balb/cathymic nude mice were implanted subcutaneously with 1×10^6 of PC3flu and PC3pip on the left and right dorsum respectively. Mice received 40 nmol/kg of PSMA-1-VcMMAE-Cy5.5 or PSMA-1-McMMAE-Cy5.5 in PBS via tail vein injection when tumors reached 10 mm in diameter. Fluorescence imaging was performed using the Maestro In Vivo Imaging system (Perkin-Elmer). Multispectral images were unmixed into their component spectra (PSMA probes, autofluorescence, and background) to quantitate the average fluorescence intensity associated with the tumors using regions of interest (ROIs) around the tumors.

α-tubulin = experiment: Immunofluorescence analysis of alpha-tubulin in PC3pip and PC3flu cells; type: cell-based; details: 5 nM, 24 hours
Procedure: Cells on coverslips at about 70% confluency were incubated with 5 nM of MMAE, PSMA-1-VcMMAE-Cy5.5 or PSMA-1-McMMAE-Cy5.5 for 24 hours. Cells were washed and fixed with 4% paraformaldehyde for 10 minutes, permeabilized with 0.1% Triton™ X-100 for 10 minutes, and blocked with 1% BSA for 1 hour at room temperature. Alpha-tubulin (B5-1-2) Alexa Fluor 488 Mouse Monoclonal Antibody (Invitrogen) was then added at 2 μg/mL in 0.1% BSA and incubated for 3 hours at room temperature. Cells were counterstained with DAPI, mounted with Fluor-Mount aqueous mounting solution, and observed under Leica DM4000B fluorescence microscopy at 40×.

metastatic PC3pip model = experiment: Metastatic PC3pip survival study (intracardiac GFP-PC3pip); type: in vivo, mice
Procedure: Male athymic nude mice were injected into the left ventricle of the heart with 1×10^5 GFP labeled PC3pip cells to generate bone metastasis. One week later mice received 160 nmol/kg PSMA-1-VcMMAE-Cy5.5 or PBS every 4 days with a total of 5 doses and the progression of disease was monitored by GFP imaging. Five mice were used in each group.

[3] = Maximum tolerated dose (single i.v. dose); type: in vivo, mice
Excerpt: Mice were monitored daily for 14 days.

PC3pip cells = experiment: In vitro cytotoxicity assay (CCK-8, 72 h), PSMA-positive cells; type: cell-based; details: for potency to kill PC3pip cells in the presence of PSMA-1 ligand: 10 μM of PSMA-1; for effect of protease inhibitor E64 on cell killing potency: co-incubation with 50 μM E64
Procedure: (§2) Cells (1,000/well) were seeded in 96-well culture plates the day before treatment. Cells were incubated with various concentrations of drugs for 72 hours and cell viability evaluated by CCK-8 (Dojindo). The concentration required to reach 50% of cell proliferation was determined (IC50) by GraphPad Prism 3.0.

PC3flu cells = experiment: In vitro cytotoxicity assay (CCK-8, 72 h), PSMA-negative cells; type: cell-based; details: relative to PSMA-1-VcMMAE-Cy5.5
Procedure: as §2

[4] = as above; type: cell-based; details: 72 hours, CCK-8; read-out: IC50, cytotoxicity to PC3flu cells
Procedure: as §2

[5] = In vitro cytotoxicity assay (CCK-8, 72 h), PSMA-positive cells; type: cell-based; details: 72 hours
Procedure: as §2

[6] = 160 nmol/kg every 4 days, 5 doses
[7] = 3820 nmol/kg every 4 days, 5 doses

CC[C@H](C)[C@@H]([C@H](CC(=O)N1CCC[C@H]1[C@H](OC)[C@@H](C)C(=O)N[C@H](C)[C@@H](O)c1ccccc1)OC)N(C)C(=O)[C@@H](NC(=O)[C@H](C(C)C)N(C)C(=O)OCc1ccc(NC(=O)[C@H](CCCNC(N)=O)NC(=O)[C@@H](NC(=O)CCCCCN2C(=O)CC(SCC(NC(=O)C(CCC(=O)O)NC(=O)C(CCC(=O)O)NC(=O)C(CCC(=O)O)NC(=O)CCCCCNC(=O)C3CCC(CNC(=O)CCC(NC(=O)NC(CCC(=O)O)C(=O)O)C(=O)O)CC3)C(=O)NCCCCCC(=O)NC(CCCCNC(=O)CCCCC[N+]3=C(/C=C/C=C/C=C4/N(C)c5ccc6ccccc6c5C4(C)C)C(C)(C)c4c3ccc3ccccc43)C(N)=O)C2=O)C(C)C)cc1)C(C)C (stereo partly drawn) [PSMA-1-VcMMAE-Cy5.5] (I: {ξE-CO-ξγGlu}-[X1][Ahx][ξE][ξE][ξE][ξC][Ahx][ξK](X2)-NH2 / II: V[Cit][PABC][NMeV]V[X3][Dolaproine]-X4; linker I:6-II:N via Hexanoyl(6-succinimido-3yl))
cure at day 90 (orthotopic PC3pip tumors; every four days, 5 doses): 40% | body weight loss (orthotopic PC3pip tumors; mouse, in vivo): No significant body weight loss | cure rate (no tumors at end of study) ([1]; 160 nmol/kg every 4 days, 5 doses, 90 days): 60% | tumor growth ([1]; 160 nmol/kg i.v. every 4 days, 5 doses): effectively inhibited tumor growth as early as day 6 | tumor growth when given every 7 days [1]: greatly inhibited tumor growth | lowest dose effectively inhibiting tumor growth [1]: 80 nmol/kg | stability when incubated with PBS [2]: stable | cure rate (heterotopic C4-2 tumors): 40% | weight loss (heterotopic C4-2 tumors): no weight loss | cleavage in the presence of cathepsin B (human liver cathepsin B): degraded rapidly | half-life at 2 μM (cathepsin B): 19.8 min | time of peak uptake in PC3pip tumors post-injection (PC3pip and PC3flu tumors): 24 h | disruption of α-tubulin (α-tubulin): selective disruption of tubulin in PC3pip cells but not in PC3flu cells | animal survival (metastatic PC3pip model; [6]): all 5 treated mice survived the 90-day experimental period | body weight loss (metastatic PC3pip model; [6]): no significant body weight loss | response (no GFP signal) (metastatic PC3pip model; [6]): 100% | MTD at 14 days ([3]; male, mouse, in vivo, iv, single dose i.v., tumor-free athymic nude mice, 14 days): 0.48 µmol/kg | potency to kill PC3pip cells in the presence of PSMA-1 ligand (PC3pip cells): reduced to the same potency to kill PC3flu cells | IC50 (PC3pip cells; 72 hours, CCK-8): 0.84 nM and 0.75 nM | effect of protease inhibitor E64 on cell killing potency (PC3pip cells): reduced the potency

CC[C@H](C)[C@@H]([C@@H](CC(=O)N1CCC[C@H]1[C@H](OC)[C@@H](C)C(=O)N[C@H](C)[C@@H](O)c1ccccc1)OC)N(C)C(=O)[C@@H](NC(=O)[C@H](C(C)C)N(C)C(=O)OCc1ccc(NC(=O)[C@H](CCCNC(N)=O)NC(=O)[C@@H](NC(=O)CCCCCN2C(=O)CC(SC[C@H](NC(=O)[C@H](CCC(=O)O)NC(=O)[C@H](CCC(=O)O)NC(=O)[C@H](CCC(=O)O)NC(=O)CCCCCNC(=O)C3CCC(CNC(=O)CC[C@H](NC(=O)N[C@@H](CCC(=O)O)C(=O)O)C(=O)O)CC3)C(=O)NCCCCCC(=O)N[C@@H](CCCCN)C(N)=O)C2=O)C(C)C)cc1)C(C)C (stereo partly drawn) [PSMA-1-VcMMAE] (I: {Glu-CO-γGlu}-[X1][Ahx]EEEC[Ahx]K-NH2 / II: V[Cit][PABC][NMeV]V[Dil][Dolaproine]-X4; linker I:6-II:N via Hexanoyl(6-succinimido-3yl); C-terminus assumed)
tumor free mice (orthotopic PC3pip tumors; 3860 nmol/kg, five mice per group): 1 mouse | tumor growth and survival (orthotopic PC3pip tumors; every four days, 5 doses, significant at 1910 and 3860 nmol/kg): Inhibition of tumor growth and extension of animal survival time | inhibition of PC3pip tumor growth compared with PC3flu tumor growth ([1]; 955 nmol/kg): significantly more effective | animal survival [1, 7]: all 5 mice survived the 90-day experimental time | cure (tumor free at end of 90-day study) [1, 7]: 60% | tumor growth when given every 7 days [1]: greatly inhibited tumor growth | lowest dose effectively inhibiting tumor growth [1]: 191 nmol/kg | body weight loss ([1]; up to highest dose tested, 3820 nmol/kg): No body weight loss | increase of IC50 against PC3flu cells on removal of the Cy5.5 moiety (PC3flu cells): 11.1 fold | IC50 [4]: 222 nM | survival and body weight (metastatic PC3pip model; dose not stated): prolong animal survival time with no body weight loss | MTD ([3]; mouse, in vivo, iv, single dose i.v., tumor-free athymic nude mice, 14 days): 7.64 µmol/kg | MTD relative to MMAE ([3]; single dose): more than 10 fold | IC50 ([5]; CCK-8, read-out: IC50, cytotoxicity to PC3pip cells): 4.64 nM | selectivity ratio ([5]; PC3flu IC50 over PC3pip IC50, read-out: selectivity, differential cytotoxicity PC3pip vs PC3flu cells): 48 | potency to kill PC3pip cells in the presence of PSMA-1 ligand (PC3pip cells): reduced to the same potency to kill PC3flu cells | ratio of IC50's between PC3pip and PC3flu cells (PC3pip cells; 72 hours): 48.2 | effect of protease inhibitor E64 on cell killing potency (PC3pip cells): susceptible to E64 protease inhibition | increase of IC50 against PC3pip cells on removal of the Cy5.5 moiety (PC3pip cells; relative to PSMA-1-VcMMAE-Cy5.5): 6.2 fold
